Source: patent EP4671258A1, “RADIOACTIVE LABEL OF RISEDRONIC ACID DERIVATIVE, AND PRECURSOR COMPOUND THEREOF, AND PREPARATION METHOD THEREFOR AND USE THEREOF” (The Affiliated Hospital of Southwest Medical University, priority 2023, dated 2024)

Test system: tumor-bearing mice
Assay: Comparative PET/CT imaging experiment in tumor-bearing mice (Test Example 2)
Format: in vivo, nude mice
Settings: PET/CT whole-body imaging 2 hours after tail vein injection of about 0.1 ml (1 mCi/ml); MDA-MB-231 bone metastasis model
Procedure: In this test example, the PET/CT imaging experiment of the ^68Ga-labeled compound represented by Formula II-1 of the present disclosure in tumor-bearing mice was disclosed. • (1) Establishment of tumor-bearing mouse model: 12 SPF female nude mice were prepared. After isoflurane anesthesia, the skin around the left knee joint was disinfected. The left hind limb was bent and an insulin needle (29G needle) was used to insert vertically into the femur from the concave point of the femoral head joint fossa. The needle was slowly rotated into the bone marrow cavity and 25µl (containing about 2×10^6 cells) of MDA-MB-231 (human breast cancer cells, from ATCC) cell culture medium was injected. After disinfection, the hole was sealed with sterile bone wax, and the animal was placed on a 37°C hot plate to rewarm. After recovery, it was returned to the cage for continued feeding. • (2) Verification of tumor-bearing mouse model: 4 weeks after inoculation, 12 nude mice were scanned using Micro-CT respectively.
In this test example, a comparative PET/CT imaging experiment of the ^68Ga-labeled compound represented by Formula II-1 of the present disclosure and ^68Ga-DOTA-ibandronic acid in tumor-bearing mice was disclosed. The ^68Ga-DOTA-ibandronic acid was prepared according to the method No.5 in Table 1 in the description of the published Chinese patent application with application number 202111419244.X.
Four successfully modeled tumor-bearing mice were taken, in which two mice were injected with about 0.1 ml of the freshly prepared ^68Ga-labeled compound represented by Formula II-1 (with a concentration of 1 mCi/ml) via the tail vein, and the other two mice were injected with about 0.1 ml of the freshly prepared ^68Ga-DOTA-ibandronic acid (with a concentration of 1 mCi/ml) via the tail vein. PET/CT whole-body imaging was performed 2 hours after injection.
The T/N value was calculated according to the following formula: T/N value = SUVmax of lesion/SUVmax of background tissue [formula] Table 1: Imaging results of tumor-bearing mice

## ^68Ga-DOTA-ibandronic acid
  Head SUVmax: 0.783
  Head SUVmin: 0.230
  Lesion SUVmax: 0.647
  Lesion SUVmin: 0.139
  Liver SUVmax: 0.067
  Liver SUVmin: 0.046
